Data reported in patent US9821031B2, “Methods and compositions for treating hypoglycemic disorders” (priority 2007, dated 2017).
“Also recorded” adds a separate entry of the source. Marks after values point to notes of the source that are not given here.

Experiments:
[1] = test system: SUR-1−/− mice; experiment: Fasting hormonal profile (insulin, glucagon, insulin/glucose ratio); type: in vivo, mouse
Protocol: (§1) Alzet mini-osmotic pumps (model 2002; Alza, Palo Alto, Calif.) were implanted subcutaneously to deliver exendin-(9-39) (Bachem Bioscience, King of Prussia, Pa.) at a rate of 150 pmol/kg/min or vehicle (0.9% NaCl/1% BSA) for 2 weeks. For determination of fasting blood glucose levels mice were fasted for 12-16 hours. Oral glucose tolerance testing was carried after a 12-16 hour fast by administering 2 g/kg of dextrose by oral gavage (feeding needles; Popper and Sons, Inc., Hyde Park, N.Y.). For insulin tolerance testing mice received 0.5 units/kg of insulin intraperitoneally after a 4 hour fast. Blood glucose levels were measured using a hand-held glucose meter (FreeStyle; TheraSense, Alameda, Calif.). Insulin and glucagon were measured by ELISA (Mouse Endocrine Immunoassay Panel; Linco Research, Inc., St. Charles, Mo.).

[2] = test system: SUR-1−/− and wild-type mice; experiment: Insulin tolerance test (insulin sensitivity); type: in vivo, mouse; details: insulin 0.5 units/kg i.p. after 4 hour fast, any of the treatment groups (FIG. 4B)
Protocol: as §1, with “Mo.). Twelve-18 week old male SUR-1^−/− and wildtype littermates underwent a baseline evaluation including fasting blood glucose measurements and oral glucose tolerance testing, followed by randomization to treatment with exendin-(9-39) (150 pmol/kg/min) or vehicle (0.9% NaCl, 1% BSA). Fasting blood glucose levels were determined after an overnight fast on days 3 and 7 of the infusion. In addition, oral glucose tolerance and insulin sensitivity were evaluated during treatment. […]” for “Mo.).”

[3] = test system: SUR-1−/− islets; experiment: Cytosolic free Ca2+ measurement (Fura-2); type: cell-based, mouse; details: for Amino acid-stimulated rise in intracellular calcium: SUR-1−/− islets, amino acids 4 mM (FIG. 6)
Protocol: Mouse islets were isolated and cultured on poly-[…] coated glass coverslips under the same conditions as described above. The perifusion procedure and cytosolic-free Ca2+ ([Ca2+]i) measurement were described previously (24). In brief, the coverslip with attached islets was incubated with 15 μM Fura-2 acetoxymethylester (Molecular Probes, Eugene, Oreg.) in Krebs-Ringer bicarbonate buffer with 5 mM glucose for 35 min at 37° C. Islets were then perifused with Krebs-Ringer bicarbonate buffer with 0.25% bovine serum albumin at 37° C. at a flow rate of 2mL/min, while various agents were applied. [Ca2+]i was measured with a dual wavelength fluorescence microscope as previously described.

[4] = test system: SUR-1−/− mice; experiment: Fasting blood glucose during continuous subcutaneous exendin-(9-39) infusion; type: in vivo, mouse; details: for Fasting blood glucose levels: 150 pmol/kg/min s.c. pump, overnight fast
Source text: (§2) SUR-1^−/− mice were kindly provided by Dr. Mark A. Magnuson. The generation and genotyping of SUR-1^−/− mice were previously described (8). Mice are maintained in a C57B1/6 genetic background. Twelve to eighteen week SUR-1^−/− and wild-type littermate control mice were used in all experiments. Mice were maintained on a 12:12-h light-dark cycle and were fed a standard rodent chow diet. All procedures were approved and carried out according to the University of Pennsylvania Institutional Animal Care and Use Committee Guidelines. Alzet mini-osmotic pumps (model 2002; Alza, Palo Alto, Calif.) were implanted subcutaneously to deliver exendin-(9-39) (Bachem Bioscience, King of Prussia, Pa.) at a rate of 150 pmol/kg/min or vehicle (0.9% NaCl/1% BSA) for 2 weeks. For determination of fasting blood glucose levels mice were fasted for 12-16 hours. Oral glucose tolerance testing was carried after a 12-16 hour fast by administering 2 g/kg of dextrose by oral gavage (feeding needles; Popper and Sons, Inc., Hyde Park, N.Y.). For insulin tolerance testing mice received 0.5 units/kg of insulin intraperitoneally after a 4 hour fast. Blood glucose levels were measured using a hand-held glucose meter (FreeStyle; TheraSense, Alameda, Calif.). Insulin and glucagon were measured by ELISA (Mouse Endocrine Immunoassay Panel; Linco Research, Inc., St. Charles, Mo.). Twelve-18 week old male SUR-1^−/− and wildtype littermates underwent a baseline evaluation including fasting blood glucose measurements and oral glucose tolerance testing, followed by randomization to treatment with exendin-(9-39) (150 pmol/kg/min) or vehicle (0.9% NaCl, 1% BSA). Fasting blood glucose levels were determined after an overnight fast on days 3 and 7 of the infusion. In addition, oral glucose tolerance and insulin sensitivity were evaluated during treatment. […] After an oral load of glucose, SUR-1^−/− mice were glucose intolerant when compared to littermate wild-type controls (p<0.0001, repeated measures ANOVA) (FIG. 1C). The SUR-1^−/− mice have a significant impairment of insulin secretion in response to an oral glucose load (wildtype vs. SUR-1^−/−: p=0.02, repeated measures ANOVA) (FIG. 1D). Exendin-(9-39) was administered via an Azlet miniosmotic subcutaneous pump at a continuous infusion rate of 150 pmol/kg/min for 2 weeks. This dose was chosen based on results of a pilot study evaluating different doses previously shown to have an effect in normal humans and mice.

[5] = test system: wild-type littermates; experiment: as above; type: in vivo, mouse; details: wild-type mice, 150 pmol/kg/min
Source text: as §2

[6] = test system: SUR-1−/− islets; experiment: cAMP content determination in static incubations of isolated islets; type: cell-based, mouse
Protocol: Islets were isolated as above, hand-picked and cultured for three days. Cultured islets were preincubated in glucose free Krebs-Ringer bicarbonate buffer for 60 min, 100 nM exendin-(9-39) was added 30 min into the preincubation period. Then, islets were exposed to different treatments for an additional 30 min in the presence of 0.1 mM isobutyl-methylzanthine (IBMX). After incubation, islets were washed 2 times by cold glucose-free Hank's buffer. cAMP was measured in islet lysates by ELISA (GE/Amersham Biosciences, Piscataway, N.J.).

[7] = test system: SUR-1−/− mice; experiment: Oral glucose tolerance test; type: in vivo, mouse
Protocol: as §2, with “Alzet” for “SUR-1^−/− mice were kindly provided by Dr. Mark A. Magnuson. The generation and genotyping of SUR-1^−/− mice were previously described (8). Mice are maintained in a C57B1/6 genetic background. Twelve to eighteen week SUR-1^−/− and wild-type littermate control mice were used in all experiments. Mice were maintained on a 12:12-h light-dark cycle and were fed a standard rodent chow diet. All procedures were approved and carried out according to the University of Pennsylvania Institutional Animal Care and Use Committee Guidelines. Alzet”

[8] = test system: wild-type littermates; experiment: Oral glucose tolerance test; type: in vivo, mouse; details: oral glucose 2 g/kg, during treatment (FIG. 4A)
Protocol: as §2, with “Alzet” for “SUR-1^−/− mice were kindly provided by Dr. Mark A. Magnuson. The generation and genotyping of SUR-1^−/− mice were previously described (8). Mice are maintained in a C57B1/6 genetic background. Twelve to eighteen week SUR-1^−/− and wild-type littermate control mice were used in all experiments. Mice were maintained on a 12:12-h light-dark cycle and were fed a standard rodent chow diet. All procedures were approved and carried out according to the University of Pennsylvania Institutional Animal Care and Use Committee Guidelines. Alzet”

[9] = test system: SUR-1−/− islets; experiment: Islet perifusion, fuel-induced insulin secretion; type: cell-based, mouse; details: perifused SUR-1−/− islets
Protocol: Islets were isolated by collagenase digestion and cultured for 3 days in RPMI 1640 medium containing 10 mM glucose. The culture medium was supplemented with 10% fetal bovine serum, 2 mM glutamine, 100 units/mL penicillin, and 50 μg/mL streptomycin. Islets were incubated at 37° C. in a 5% CO2, 95% air-humidified incubator. Batches of 100 cultured mouse islets were loaded onto a nylon filter in a chamber and perifused with Krebs-Ringer bicarbonate buffer (115 mM NaCl, 24 mM NaHCO3, 5 mM KCl, 1 mM MgCl2, 2.5 mM CaCl2, 10 mM HEPES, pH 7.4) with 0.25% bovine serum albumin at a flow rate of 2 mL/min. Perifusate solutions were gassed with 95% O2, 5% CO2 and maintained at 37° C. Islets were stimulated with a ramp of amino acids. The physiologic mixture of 19 amino acids when used at a maximum concentration of 12 mM (about 3 times physiological concentration) had the following composition (in mM): glutamine 2, alanine 1.25, arginine 0.53, aspartate 0.11, citrulline 0.27, glutamate 0.35, glycine 0.85, histidine 0.22, isoleucine 0.27, leucine 0.46, lysine 1.06, methionine 0.14, ornithine 0.20, phenylalanine 0.23, proline 1, serine 1.62, threonine 0.77, tryptophan 0.21, valine 0.57. Samples were collected every minute for insulin assays. Insulin was measured by radioimmunoassay (Linco Research Inc., St. Charles, Mo.).

[10] = test system: SUR-1−/− islets; experiment: Insulin secretion in static incubations of isolated islets; type: cell-based, mouse
[11] = during treatment, SUR-1−/− and wild-type (FIG. 3A)

Exendin (9-39) [Exendin-(9-39)] was tested, and the Insulin/glucose ratio ([1]; SUR-1−/− mice, WT vs. SUR-1−/− Ex-(9-39) p=0.32 (FIG. 3B)) was “normalized”, the “Fasting glucagon levels among treatment groups” value [1, 11] was “not different” and the “Fasting insulin levels among treatment groups” value [1, 11] was “not different”. The Peripheral insulin sensitivity [2] was “did not impact; also recorded: did not influence”, the Basal intracellular calcium ([3]; SUR-1−/− islets (FIG. 6)) was “did not affect” and the “Amino acid-stimulated rise in intracellular calcium” value [3] was “no effect”. The “Amino acid-stimulated rise in intracellular calcium” value ([3]; listed as exendin-(9-39)) was “did not impact”, the “Fasting blood glucose levels” value ([4]; day 3, mean±SEM) was 82.2 ± 6.3 mg/dL and the “Fasting blood glucose levels” value ([4]; day 7, mean±SEM) was 82 ± 4.7 mg/dL. The “Effect on fasting blood glucose levels (in words)” value ([4]; 12-16 hour fast, day 7 (FIG. 2)) was “normalized”, the “Fasting blood glucose levels vs. vehicle-treated wild type controls” value [5] was “not different” and the “cAMP Content” value ([6]; 100 nM exendin-(9-39) + 4 mM AAM (amino acid-stimulated)) was 52.5 ± 9.4^c pmol/100 islets. For the same substance, the “cAMP Content” value ([6]; 100 nM exendin-(9-39) + 4 mM AAM (amino acid-stimulated), listed as exendin-(9-39)) was 20.9±4.4 pmol/100 islets, the “cAMP Content” value ([6]; basal, 100 nM exendin-(9-39), no exogenous GLP-1, glucose free KRBB, baseline 40.1 ± 4.2) was 20.5 ± 2.3^a pmol/100 islets and the “cAMP Content” value ([6]; basal, 100 nM exendin-(9-39), no exogenous GLP-1, glucose free KRBB, baseline 40.1 ± 4.2, listed as exendin-(9-39)) was 20.5±2.3 pmol/100 islets. The Glucose tolerance ([7]; oral glucose 2 g/kg, during treatment (FIG. 4A)) was “did not significantly impair; also recorded: did not influence”, the “Return to baseline blood glucose levels” value ([7]; oral glucose tolerance test, 120 minute time point) was “minor delay” and the Glucose tolerance [8] was “no effect”. For the same substance, the “Insulin response to KCl, presence vs. absence of exendin-(9-39)” value ([9]; 100 nM exendin-(9-39)) was “similar”, the “Insulin release in response to ramp of amino acid mixture” value ([9]; amino acids 0-12 mM, 100 nM exendin-(9-39) (FIG. 5)) was “blocked” and the “Insulin Secretion” value ([10]; 100 nM exendin-(9-39) + 4 mM AAM (amino acid-stimulated), AAM alone 389 ± 17) was 219 ± 14 ng/100 islets/30 min. For the same substance, the “Insulin Secretion” value ([10]; 100 nM exendin-(9-39) + 4 mM AAM (amino acid-stimulated), AAM alone 389 ± 17, listed as exendin-(9-39)) was 219±14 ng/100 islets/30 min, the “Insulin Secretion” value ([10]; basal, 100 nM exendin-(9-39), baseline 221 ± 22) was 126 ± 12^a ng/100 islets/30 min and the “Insulin Secretion” value ([10]; basal, 100 nM exendin-(9-39), baseline 221 ± 22, listed as exendin-(9-39)) was 126±12 ng/100 islets/30 min.
